The values that follow come from ChEMBL document CHEMBL3879908, “Pyrrolidinone carboxamide derivatives” (2014).

The target in this test is T1, Chemerin-like receptor 1 (Homo sapiens, UniProt Q99788).
T1 sequence (Q99788 whole entry): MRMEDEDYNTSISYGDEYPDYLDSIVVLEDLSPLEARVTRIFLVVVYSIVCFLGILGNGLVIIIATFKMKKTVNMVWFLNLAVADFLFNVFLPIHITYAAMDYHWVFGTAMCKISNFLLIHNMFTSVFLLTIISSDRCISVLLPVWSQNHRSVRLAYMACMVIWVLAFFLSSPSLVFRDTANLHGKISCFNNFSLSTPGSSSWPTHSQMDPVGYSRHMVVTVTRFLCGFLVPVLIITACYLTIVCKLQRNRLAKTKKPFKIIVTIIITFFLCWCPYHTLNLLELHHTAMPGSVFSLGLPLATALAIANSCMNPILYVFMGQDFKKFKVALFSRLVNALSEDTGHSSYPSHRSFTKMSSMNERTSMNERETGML
Briefly: Displacement of [125I]-chemerin from ChemR23 (unknown origin) transfected in mouse BaF3 cells after 3 hrs by scintillation counting method. It counts as cell-based.
The term IC50 denotes the concentration that inhibits the measured activity by half. Higher therefore signals a need for much substance. As to `Cc1cccc(C)c1N1C[C@](C(=O)Nc2cc(C(F)(F)F)cc(C(F)(F)F)c2)(C(C)C)[C@H](C)C1=O`, the IC50 was 30 to 300 nM.
The same measure for `Cc1cccc(C)c1N1C[C@@](CN(C)CC2CCC2)(C(=O)Nc2cc(C(F)(F)F)cc(C(F)(F)F)c2)[C@H](C)C1=O`: 30 to 300 nM.
Compound `Cc1cccc(C)c1N1CC2(C(=O)Nc3cc(C(F)(F)F)cc(C(F)(F)F)c3)CC(N3CCCC3)CC2C1=O` (centres undefined) gave an IC50 of 30 to 300 nM.
The same measure for `CCC1(C(=O)Nc2cc(C(F)(F)F)cc(C(F)(F)F)c2)CC(=O)N(c2ccccc2OC)C1` (centres undefined): 300 to 6000 nM; for `Cc1cccc(C)c1N1C[C@@](CN2CCC(F)(F)C2)(C(=O)Nc2cc(C(F)(F)F)cc(C(F)(F)F)c2)[C@H](C)C1=O`: 30 to 300 nM; for `Cc1cccc(C)c1N1C[C@@](CN(C)CC(F)(F)F)(C(=O)Nc2cc(C(F)(F)F)cc(C(F)(F)F)c2)[C@H](C)C1=O`: at most 30 nM.
In turn, `Cc1cccc(C)c1N1CC(C(=O)Nc2cc(F)cc(F)c2)CC1=O` (centres undefined) showed an IC50 of 300 to 6000 nM.
Turning to `Cc1cccc(C)c1N1CC(C(=O)Nc2cc(C(F)(F)F)cc(C(F)(F)F)c2)(C2=CCN(C(=O)OC(C)(C)C)CC2)CC1=O` (centres undefined), the IC50 was at most 30 nM.
The same measure for `Cc1cccc(C)c1N1CC(C(=O)Nc2cc(C(F)(F)F)cc(C(F)(F)F)c2)(C2CCC2)CC1=O` (centres undefined): at most 30 nM; for `CC[C@@]1(C(=O)Nc2ccc(C)c(C(F)(F)F)c2)CN(c2c(C)cccc2C)C(=O)[C@H]1C`: 30 to 300 nM.
In the case of `Cc1cccc(C)c1N1CC(C(=O)Nc2cc(C(F)(F)F)cc(C(F)(F)F)c2)(C(C)(C)O)CC1=O` (centres undefined) it was at most 30 nM.
The same measure for `CC[C@@H]1C(=O)N(c2c(C)cccc2C)C[C@]1(C)C(=O)Nc1cc(C(F)(F)F)cc(C(F)(F)F)c1`: 300 to 6000 nM; for `Cc1cccc(C)c1N1C[C@@](CN2CCOCC2)(C(=O)Nc2cc(C#N)cc(C(F)(F)F)c2)[C@H](C)C1=O`: 30 to 300 nM.
With `Cc1cccc(C)c1N1CC2(C(=O)Nc3cc(C(F)(F)F)cc(C(F)(F)F)c3)COCC2C1=O` (centres undefined), the IC50 is 30 to 300 nM.
Compound `C=Cc1ccccc1N1CC(C(=O)Nc2cc(C(F)(F)F)cc(C(F)(F)F)c2)(C(C)C)CC1=O` (centres undefined) gave an IC50 of 30 to 300 nM.
The same measure for `CC[C@]1(C(=O)Nc2cc(C(F)(F)F)cc(C(F)(F)F)c2)CC(=O)N(c2c(C)cccc2C)C1`: at most 30 nM.
The same measure for `Cc1cccc(C)c1N1C[C@@](CN2CCC(F)(F)C2)(C(=O)Nc2cc(C3CC3)cc(C(F)(F)F)c2)[C@H](C)C1=O`: 30 to 300 nM; for `Cc1cccc(C)c1N1C[C@@](CC(C)C)(C(=O)Nc2cc(C(F)(F)F)cc(C(F)(F)F)c2)[C@H](C)C1=O`: at most 30 nM.
The same measure for `Cc1cccc(C)c1N1C[C@@](CN2CCC(F)CC2)(C(=O)Nc2cc(C#N)cc(C(F)(F)F)c2)[C@H](C)C1=O`: at most 30 nM; for `Cc1ccc(C)c(N2CC(C(=O)Nc3cc(C(F)(F)F)cc(C(F)(F)F)c3)CC2=O)c1` (centres undefined): 30 to 300 nM; for `C=C(C)CC1(C(=O)Nc2cc(C(F)(F)F)cc(C(F)(F)F)c2)CC(=O)N(c2c(C)cccc2C)C1` (centres undefined): at most 30 nM.
`Cc1cccc(C)c1N1CC(CCC(C)C)(C(=O)Nc2cc(C(F)(F)F)cc(C(F)(F)F)c2)CC1=O` (centres undefined) showed an IC50 of at most 30 nM.
The compound `Cc1cccc(Cl)c1N1CC(C(=O)Nc2cc(C(F)(F)F)cc(C(F)(F)F)c2)CC1=O` (centres undefined) gave an IC50 of 30 to 300 nM.
The same measure for `Cc1cccc(C)c1N1CC(CO)(C(=O)Nc2cc(C(F)(F)F)cc(C(F)(F)F)c2)CC1=O` (centres undefined): 30 to 300 nM; for `Cc1cccc(C)c1N1CC(CN2CCCC2)(C(=O)Nc2cc(C(F)(F)F)cc(C(F)(F)F)c2)CC1=O` (centres undefined): 300 to 6000 nM.
The same measure for `CC(C)C1(C(=O)Nc2cc(C(F)(F)F)cc(C(F)(F)F)c2)CC(=O)N(c2ccccc2C2CC2)C1` (centres undefined): 30 to 300 nM; for `Cc1cccc(C)c1N1C[C@@](CN(C)C)(C(=O)Nc2cc(C3CC3)cc(C(F)(F)F)c2)[C@H](C)C1=O`: 30 to 300 nM; for `COCC(C)(C)N(C)C[C@@]1(C(=O)Nc2cc(C(F)(F)F)cc(C(F)(F)F)c2)CN(c2c(C)cccc2C)C(=O)[C@H]1C`: at most 30 nM.
`Cc1cccc(CCN2CCCC2)c1N1CC(C(=O)Nc2cc(C(F)(F)F)cc(C(F)(F)F)c2)(C(C)C)CC1=O` (centres undefined) yielded an IC50 of 300 to 6000 nM.
`Cc1ccccc1N1CC(C(=O)Nc2cccc(C(F)(F)F)c2)CC1=O` (centres undefined): the IC50 was in the range of 300 to 6000 nM.
The compound `COC(=O)c1cc(NC(=O)C2CC(=O)N(c3c(C)cccc3C)C2)cc(C(F)(F)F)c1` (centres undefined) displayed an IC50 of 30 to 300 nM.
In the case of `Cc1cc(C)n(C2(C(=O)Nc3cc(C(F)(F)F)cc(C(F)(F)F)c3)CC(=O)N(c3c(C)cccc3C)C2)n1` (centres undefined) it was at most 30 nM; in that of `CC[C@@]1(C(=O)Nc2cc(CN3CCCC3C(F)(F)F)cc(C(F)(F)F)c2)CN(c2c(C)cccc2C)C(=O)[C@H]1C` (some centres undefined), at most 30 nM.
The compound `C=CCc1ccccc1N1CC(C(=O)Nc2cc(C(F)(F)F)cc(C(F)(F)F)c2)(C(C)C)CC1=O` (centres undefined) showed an IC50 of 30 to 300 nM.
Compound `Cc1cccc(C)c1N1C[C@@](CN2CCC(F)CC2)(C(=O)Nc2cc(C(F)(F)F)cc(C(F)(F)F)c2)[C@H](C)C1=O` yielded an IC50 of 30 to 300 nM.
The same measure for `Cc1cccc(C)c1N1CC2(C(=O)Nc3cc(C(F)(F)F)cc(C(F)(F)F)c3)CCCCC2C1=O` (centres undefined): 30 to 300 nM.
In the case of `Cc1cccc(C)c1N1CC(C(=O)Nc2cc(Cl)cc(Cl)c2)CC1=O` (centres undefined) it was 30 to 300 nM; in that of `CC[C@@]1(C(=O)Nc2cc(N(C)C)cc(C(F)(F)F)c2)CN(c2c(C)cccc2C)C(=O)[C@H]1C`, 30 to 300 nM; in that of `CCc1cccc(C)c1N1CC(C(=O)Nc2cc(C(F)(F)F)cc(C(F)(F)F)c2)CC1=O` (centres undefined), at most 30 nM.
The same measure for `COc1cc(NC(=O)C2CC(=O)N(c3c(C)cccc3C)C2)cc(C(F)(F)F)c1` (centres undefined): 30 to 300 nM.
Consider `Cc1cccc(C)c1N1CC(C(=O)Nc2cc(Cl)cc(C#N)c2)CC1=O` (centres undefined), for which the IC50 was in the range of 300 to 6000 nM.
The same measure for `CCOCc1cccc(C)c1N1CC(C(=O)Nc2cc(C(F)(F)F)cc(C(F)(F)F)c2)(C(C)C)CC1=O` (centres undefined): 300 to 6000 nM; for `Cc1cccc(C)c1N1C[C@]2(C(=O)Nc3cc(C(F)(F)F)cc(C(F)(F)F)c3)CCO[C@@H]2C1=O`: at most 30 nM; for `Cc1cccc(C)c1N1C[C@@](CN(C)CC(F)F)(C(=O)Nc2cc(C(F)(F)F)cc(C(F)(F)F)c2)[C@H](C)C1=O`: at most 30 nM.
Take `Cc1cccc(C)c1N1CC(CC2CCN(Cc3ccccc3)C2)(C(=O)Nc2cc(C(F)(F)F)cc(C(F)(F)F)c2)CC1=O` (centres undefined): the IC50 was at most 30 nM.
In the case of `CCc1cccc(NC(=O)C2CC(=O)N(c3c(C)cccc3C)C2)c1` (centres undefined), the IC50 lay within 300 to 6000 nM.
In the case of `CCc1cccc(C)c1N1CC(C(=O)Nc2ccc(C)c(C(F)(F)F)c2)CC1=O` (centres undefined) it was 300 to 6000 nM.
In the case of `Cc1cccc(C)c1N1C[C@@](CN2CCC(F)(F)CC2)(C(=O)Nc2cc(OC(C)C)cc(C(F)(F)F)c2)[C@H](C)C1=O` it was at most 30 nM; in that of `CC[C@@H]1C(=O)N(c2c(C)cccc2C)C[C@@]1(C)C(=O)Nc1cc(C(F)(F)F)cc(C(F)(F)F)c1`, at most 30 nM; in that of `Cc1ccccc1N1CC(C(=O)Nc2cc(C(F)(F)F)cc(C(F)(F)F)c2)(C(C)C)CC1=O` (centres undefined), at most 30 nM.
In the case of `Cc1cccc(C)c1N1CC(C(=O)Nc2cc(Br)cc(C(F)(F)F)c2)(C(C)C)CC1=O` (centres undefined) it was at most 30 nM; in that of `Cc1cccc(C2CC2)c1N1CC(C(=O)Nc2cc(C(F)(F)F)cc(C(F)(F)F)c2)CC1=O` (centres undefined), at most 30 nM; in that of `Cc1cccc(C)c1N1CC(C(=O)Nc2cc(C(F)(F)F)cc(C(F)(F)F)c2)(C(C)O)CC1=O` (centres undefined), 30 to 300 nM.
Compound `Cc1cccc(C)c1N1C[C@](C(=O)Nc2cc(C#N)cc(C(F)(F)F)c2)(C(C)C)CC1=O` showed an IC50 of at most 30 nM.
The same measure for `Cc1cccc(C)c1N1CC(C(=O)Nc2cc(C(F)(F)F)cc(C(F)(F)F)c2)(C2CCN(C)CC2)CC1=O` (centres undefined): 300 to 6000 nM.
In the case of `Cc1cccc(C)c1N1C[C@@](CN(C)CC(C)(C)C)(C(=O)Nc2cc(C(F)(F)F)cc(C(F)(F)F)c2)[C@H](C)C1=O` it was at most 30 nM.
In turn, `Cc1cccc(C)c1N1C[C@](C(=O)Nc2cc(C(F)(F)F)cc(C(F)(F)F)c2)(C2CCOCC2)[C@H](C)C1=O` displayed an IC50 of at most 30 nM.
In the case of `Cc1cccc(C)c1N1CC(C(=O)Nc2cc(C(F)(F)F)cc(C(F)(F)F)c2)(C2CCN(C(=O)OC(C)(C)C)CC2)CC1=O` (centres undefined) it was at most 30 nM.
`Cc1cccc(C)c1N1C[C@](C(=O)Nc2cc(C(F)(F)F)cc(C(F)(F)F)c2)(C2CCOCC2)[C@@H](C)C1=O` had an IC50 of 30 to 300 nM.
As for `Cc1cccc(C)c1N1C[C@@](CN(C)CC(C)C)(C(=O)Nc2cc(C3CC3)cc(C(F)(F)F)c2)[C@H](C)C1=O`, the IC50 was 30 to 300 nM.
In the case of `Cc1cccc(C)c1N1C[C@](C(=O)Nc2cc(NC(C)C)cc(C(F)(F)F)c2)(C(C)C)[C@H](C)C1=O` it was 30 to 300 nM.
`CCN(C[C@@]1(C(=O)Nc2cc(C(F)(F)F)cc(C(F)(F)F)c2)CN(c2c(C)cccc2C)C(=O)[C@H]1C)C(C)C` displayed an IC50 of at most 30 nM.
Turning to `CC[C@@]1(C(=O)Nc2cc(OC3CCC3)cc(C(F)(F)F)c2)CN(c2c(C)cccc2C)C(=O)[C@H]1C`, the IC50 is at most 30 nM.
The same measure for `Cc1cccc(C)c1N1CC(C(=O)Nc2cc(C(F)(F)F)cc(C(F)(F)F)c2)(C2=CCNCC2)CC1=O` (centres undefined): 300 to 6000 nM; for `Cc1cccc(C)c1N1CC(C(=O)Nc2cc(N3CCCCC3)cc(C(F)(F)F)c2)CC1=O` (centres undefined): 30 to 300 nM.
For `CNC1(C(=O)Nc2cc(C(F)(F)F)cc(C(F)(F)F)c2)CC(=O)N(c2c(C)cccc2C)C1` (centres undefined), the IC50 is at most 30 nM.
The same measure for `Cc1cccc(C)c1N1C[C@@](CN2CCCCC2)(C(=O)Nc2cc(C(F)(F)F)cc(C(F)(F)F)c2)[C@H](C)C1=O`: 300 to 6000 nM; for `Cc1ccccc1N1CC(C)(C(=O)Nc2cc(C(F)(F)F)cc(C(F)(F)F)c2)C(C)C1=O` (centres undefined): at most 30 nM.
The same measure for `CC[C@@]1(C(=O)Nc2cc(CN3CCOCC3)cc(C(F)(F)F)c2)CN(c2c(C)cccc2C)C(=O)[C@H]1C`: 300 to 6000 nM.
